The NIST ThermoML archive (doi:10.1021/je201334p)

Assays:
[1] = refractive index (Na D-line) (dimensionless); xn = mol fraction of the nth substance listed; details: 101 kPa, Liquid, Standard Abbe refractometry
[2] = xn = mol fraction of the nth substance listed; details: 101 kPa, Liquid; for speed of sound: Sing-around technique in a fixed-path interferometer; for mass density: Vibrating tube method

CCOS(=O)(=O)[O-].CCc1cccc[n+]1CC [1,2-diethylpyridinium ethylsulfate] + O
Details | mass density, 288.15 K [kg/m3] | mass density, 298.15 K [kg/m3] | mass density, 308.15 K [kg/m3] | refractive index, 288.15 K | refractive index, 298.15 K | refractive index, 308.15 K | speed of sound, 288.15 K [m/s] | speed of sound, 298.15 K [m/s] | speed of sound, 308.15 K [m/s]
[1], x2 = 0 | – | – | – | 1.51631 | 1.5135 | 1.51067 | – | – | –
[1], x2 = 0.0987 | – | – | – | 1.51478 | 1.51196 | 1.50914 | – | – | –
[1], x2 = 0.1089 | – | – | – | 1.51458 | 1.51176 | 1.50896 | – | – | –
[1], x2 = 0.2048 | – | – | – | 1.51266 | 1.50984 | 1.50705 | – | – | –
[1], x2 = 0.3037 | – | – | – | 1.51023 | 1.50743 | 1.50461 | – | – | –
[1], x2 = 0.3979 | – | – | – | 1.50723 | 1.5044 | 1.50156 | – | – | –
[1], x2 = 0.4922 | – | – | – | 1.50325 | 1.50042 | 1.49759 | – | – | –
[1], x2 = 0.6018 | – | – | – | 1.49668 | 1.49381 | 1.49094 | – | – | –
[1], x2 = 0.7084 | – | – | – | 1.48656 | 1.48367 | 1.48071 | – | – | –
[1], x2 = 0.8029 | – | – | – | 1.47121 | 1.46831 | 1.46515 | – | – | –
[1], x2 = 0.8984 | – | – | – | 1.43938 | 1.43661 | 1.43375 | – | – | –
[1], x2 = 0.9493 | – | – | – | 1.4043 | 1.40198 | 1.40013 | – | – | –
[2], x2 = 0 | 1225.93 | 1219.26 | 1212.65 | – | – | – | 1774.5 | 1745.2 | 1718.4
[2], x2 = 0.0987 | 1224.31 | 1217.63 | 1211.14 | – | – | – | 1778.2 | 1749.1 | 1722.4
[2], x2 = 0.1089 | 1224.06 | 1217.36 | 1210.87 | – | – | – | 1778.4 | 1749.5 | 1723
[2], x2 = 0.2048 | 1222.4 | 1215.83 | 1209.22 | – | – | – | 1781.1 | 1753.9 | 1727.5
[2], x2 = 0.3037 | 1219.81 | 1213.23 | 1206.65 | – | – | – | 1787.5 | 1760.5 | 1734.4
[2], x2 = 0.3979 | 1216.82 | 1210.11 | 1203.43 | – | – | – | 1794.1 | 1767.4 | 1741.1
[2], x2 = 0.4922 | 1212.76 | 1206.04 | 1199.29 | – | – | – | 1803.5 | 1776.8 | 1750.6
[2], x2 = 0.6018 | 1205.78 | 1198.92 | 1192.05 | – | – | – | 1817.3 | 1790.5 | 1763.7
[2], x2 = 0.7084 | 1194.96 | 1187.92 | 1180.85 | – | – | – | 1836.4 | 1809.2 | 1782.1
[2], x2 = 0.8029 | 1177.39 | 1170.26 | 1163.05 | – | – | – | 1854.8 | 1827.2 | 1799.4
[2], x2 = 0.8984 | 1138.4 | 1131.51 | 1124.48 | – | – | – | 1846.6 | 1821.6 | 1795.6
[2], x2 = 0.9493 | 1092.23 | 1086.65 | 1080.72 | – | – | – | 1759.2 | 1746.2 | 1731.8
